Measurements taken from ChEMBL document CHEMBL1275533, “In vitro antibacterial activity of vertilmicin and its susceptibility to modifications by the recombinant AAC6'-APH2'' enzyme” (2008).
Values after ≈ are worked out from the molar mass of the structure shown. Active and inactive are the calls of the source. The rule behind the calls is not given here.

What was measured:
Klebsiella pneumoniae [1] = assay: Antibacterial activity against non-gentamicin-resistant Klebsiella pneumoniae clinical isolate after 18 hrs by agar dilution method; type: functional
Enterobacter cloacae [2] = assay: Antibacterial activity against non-gentamicin-resistant Enterobacter cloacae clinical isolate after 18 hrs by agar dilution method; type: functional
Klebsiella aerogenes [3] = assay: Antibacterial activity against non-gentamicin-resistant Enterobacter aerogenes clinical isolate after 18 hrs by agar dilution method; type: functional
Proteus mirabilis [4] = assay: Antibacterial activity against non-gentamicin-resistant Proteus mirabilis clinical isolate after 18 hrs by agar dilution method; type: functional
Morganella morganii [5] = assay: Antibacterial activity against non-gentamicin-resistant Morganella morganii clinical isolate after 18 hrs by agar dilution method; type: functional
Citrobacter freundii = assay: Antibacterial activity against non-gentamicin-resistant Citrobacter freundii clinical isolate after 18 hrs by agar dilution method; type: functional
Providencia rettgeri [6] = assay: Antibacterial activity against non-gentamicin-resistant Proteus rettgeri clinical isolate after 18 hrs by agar dilution method; type: functional
Pseudomonas aeruginosa [7] = assay: Antibacterial activity against non-gentamicin-resistant Pseudomonas aeruginosa clinical isolate after 18 hrs by agar dilution method; type: functional
Pseudomonas sp. [8] = assay: Antibacterial activity against non-gentamicin-resistant Pseudomonas spp. clinical isolate after 18 hrs by agar dilution method; type: functional
[9] = test system: Haemophilus parainfluenzae; assay: Antibacterial activity against non-gentamicin-resistant Haemophilus parainfluenzae clinical isolate after 18 hrs by agar dilution method; type: functional
Staphylococcus aureus [10] = assay: Antibacterial activity against non-gentamicin-resistant Staphylococcus aureus clinical isolate after 18 hrs by agar dilution method; type: functional
[11] = test system: Staphylococcus epidermidis; assay: Antibacterial activity against non-gentamicin-resistant Staphylococcus epidermidis clinical isolate after 18 hrs by agar dilution method; type: functional
Escherichia coli [12] = assay: Antibacterial activity against non-gentamicin-resistant Escherichia coli clinical isolate assessed as susceptible isolates after 18 hrs by agar dilution method; type: functional
Klebsiella pneumoniae [13] = assay: Antibacterial activity against non-gentamicin-resistant Klebsiella pneumoniae clinical isolate assessed as susceptible isolates after 18 hrs by agar dilution method; type: functional
Enterobacter cloacae [14] = assay: Antibacterial activity against non-gentamicin-resistant Enterobacter cloacae clinical isolate assessed as susceptible isolates after 18 hrs by agar dilution method; type: functional
Klebsiella aerogenes [15] = assay: Antibacterial activity against non-gentamicin-resistant Enterobacter aerogenes clinical isolate assessed as susceptible isolates after 18 hrs by agar dilution method; type: functional
Citrobacter koseri [16] = assay: Antibacterial activity against non-gentamicin-resistant Citrobacter diversus clinical isolate assessed as susceptible isolates after 18 hrs by agar dilution method; type: functional
Proteus mirabilis [17] = assay: Antibacterial activity against non-gentamicin-resistant Proteus mirabilis clinical isolate assessed as susceptible isolates after 18 hrs by agar dilution method; type: functional
Serratia marcescens = assay: Antibacterial activity against non-gentamicin-resistant Serratia marcescens clinical isolate assessed as susceptible isolates after 18 hrs by agar dilution method; type: functional
Providencia rettgeri [18] = assay: Antibacterial activity against non-gentamicin-resistant Proteus rettgeri clinical isolate assessed as susceptible isolates after 18 hrs by agar dilution method; type: functional
[19] = test system: Acinetobacter calcoaceticus; assay: Antibacterial activity against non-gentamicin-resistant Acinetobacter calcoaceticus clinical isolate assessed as susceptible isolates after 18 hrs by agar dilution method; type: functional
Pseudomonas aeruginosa [20] = assay: Antibacterial activity against non-gentamicin-resistant Pseudomonas aeruginosa clinical isolate assessed as susceptible isolates after 18 hrs by agar dilution method; type: functional
Haemophilus influenzae = assay: Antibacterial activity against non-gentamicin-resistant Haemophilus influenzae clinical isolate assessed as susceptible isolates after 18 hrs by agar dilution method; type: functional, organism-based
Staphylococcus aureus [21] = assay: Antibacterial activity against non-gentamicin-resistant Staphylococcus aureus clinical isolate assessed as susceptible isolates after 18 hrs by agar dilution method; type: functional
[22] = test system: Staphylococcus epidermidis; assay: Antibacterial activity against non-gentamicin-resistant Staphylococcus epidermidis clinical isolate assessed as susceptible isolates after 18 hrs by agar dilution method; type: functional
Escherichia coli [23] = assay: Antibacterial activity against gentamicin-resistant Escherichia coli clinical isolate after 18 hrs by agar dilution method; type: functional
Klebsiella pneumoniae [24] = assay: Antibacterial activity against gentamicin-resistant Klebsiella pneumoniae clinical isolate after 18 hrs by agar dilution method; type: functional
Enterobacter cloacae [25] = assay: Antibacterial activity against gentamicin-resistant Enterobacter cloacae clinical isolate after 18 hrs by agar dilution method; type: functional
Klebsiella aerogenes [26] = assay: Antibacterial activity against gentamicin-resistant Enterobacter aerogenes clinical isolate after 18 hrs by agar dilution method; type: functional
Citrobacter koseri [27] = assay: Antibacterial activity against gentamicin-resistant Citrobacter diversus clinical isolate after 18 hrs by agar dilution method; type: functional
Morganella morganii [28] = assay: Antibacterial activity against gentamicin-resistant Morganella morganii clinical isolate after 18 hrs by agar dilution method; type: functional
Providencia rettgeri [29] = assay: Antibacterial activity against gentamicin-resistant Proteus rettgeri clinical isolate after 18 hrs by agar dilution method; type: functional
[30] = test system: Acinetobacter calcoaceticus; assay: Antibacterial activity against gentamicin-resistant Acinetobacter calcoaceticus clinical isolate after 18 hrs by agar dilution method; type: functional
Pseudomonas aeruginosa [31] = assay: Antibacterial activity against gentamicin-resistant Pseudomonas aeruginosa clinical isolate after 18 hrs by agar dilution method; type: functional
Pseudomonas sp. [32] = assay: Antibacterial activity against gentamicin-resistant Pseudomonas spp. clinical isolate after 18 hrs by agar dilution method; type: functional
Staphylococcus aureus [33] = assay: Antibacterial activity against gentamicin-resistant Staphylococcus aureus clinical isolate after 18 hrs by agar dilution method; type: functional
Enterococcus faecalis [34] = assay: Antibacterial activity against gentamicin-resistant Enterococcus faecalis clinical isolate after 18 hrs by agar dilution method; type: functional
Klebsiella pneumoniae [35] = assay: Antibacterial activity against gentamicin-resistant Klebsiella pneumoniae clinical isolate assessed as susceptible isolates after 18 hrs by agar dilution method; type: functional
Citrobacter koseri [36] = assay: Antibacterial activity against gentamicin-resistant Citrobacter diversus clinical isolate assessed as susceptible isolates after 18 hrs by agar dilution method; type: functional
Morganella morganii [37] = assay: Antibacterial activity against gentamicin-resistant Morganella morganii clinical isolate assessed as susceptible isolates after 18 hrs by agar dilution method; type: functional
Providencia rettgeri [38] = assay: Antibacterial activity against gentamicin-resistant Proteus rettgeri clinical isolate assessed as susceptible isolates after 18 hrs by agar dilution method; type: functional
Pseudomonas aeruginosa [39] = assay: Antibacterial activity against gentamicin-resistant Pseudomonas aeruginosa clinical isolate assessed as susceptible isolates after 18 hrs by agar dilution method; type: functional
Staphylococcus aureus [40] = assay: Antibacterial activity against gentamicin-resistant Staphylococcus aureus clinical isolate assessed as susceptible isolates after 18 hrs by agar dilution method; type: functional
[41] = test system: Staphylococcus epidermidis; assay: Antibacterial activity against gentamicin-resistant Staphylococcus epidermidis clinical isolate assessed as susceptible isolates after 18 hrs by agar dilution method; type: functional
Enterococcus faecalis [42] = assay: Antibacterial activity against gentamicin-resistant Enterococcus faecalis clinical isolate assessed as susceptible isolates after 18 hrs by agar dilution method; type: functional, organism-based
[43] = test system: Escherichia coli BL21(DE3); assay: Acetylation activity of AAC(6')-APH(2'') in Escherichia coli BL21(DE3) assessed as production of free pyridine-4-thiolate

CCN[C@@H]1C[C@H](N)[C@@H](O[C@H]2OC(CN)=CC[C@H]2N)[C@H](O)[C@H]1O[C@H]1OC[C@](C)(O)[C@H](NC)[C@H]1O [NETILMICIN]
MIC50 (Klebsiella pneumoniae [1]): 0.5 µg/mL (≈ 1.05 µM) | MIC90 (Klebsiella pneumoniae [1]): 0.5 µg/mL (≈ 1.05 µM) | MIC50 (Enterobacter cloacae [2]): 0.5 µg/mL (≈ 1.05 µM) | MIC90 (Enterobacter cloacae [2]): 2 µg/mL (≈ 4.21 µM) | MIC50 (Klebsiella aerogenes [3]): 0.5 µg/mL (≈ 1.05 µM) | MIC90 (Klebsiella aerogenes [3]): 1 µg/mL (≈ 2.1 µM) | MIC50 (Proteus mirabilis [4]): 1 µg/mL (≈ 2.1 µM) | MIC90 (Proteus mirabilis [4]): 2 µg/mL (≈ 4.21 µM) | MIC50 (Morganella morganii [5]): 1 µg/mL (≈ 2.1 µM) | MIC90 (Morganella morganii [5]): 2 µg/mL (≈ 4.21 µM) | MIC50 (Citrobacter freundii): 1 µg/mL (≈ 2.1 µM) | MIC90 (Citrobacter freundii): 16 µg/mL (≈ 33.6 µM) | MIC50 (Providencia rettgeri [6]): 2 µg/mL (≈ 4.21 µM) | MIC90 (Providencia rettgeri [6]): 8 µg/mL (≈ 16.8 µM) | MIC50 (Pseudomonas aeruginosa [7]): 8 µg/mL (≈ 16.8 µM) | MIC90 (Pseudomonas aeruginosa [7]): 32 µg/mL (≈ 67.3 µM) | MIC50 (Pseudomonas sp. [8]): 8 µg/mL (≈ 16.8 µM) | MIC90 (Pseudomonas sp. [8]): 32 µg/mL (≈ 67.3 µM) | MIC50 [9]: 1 µg/mL (≈ 2.1 µM) | MIC90 [9]: 2 µg/mL (≈ 4.21 µM) | MIC50 (Staphylococcus aureus [10]): 0.25 µg/mL (≈ 0.526 µM) | MIC90 (Staphylococcus aureus [10]): 16 µg/mL (≈ 33.6 µM) | MIC50 [11]: 0.25 µg/mL (≈ 0.526 µM) | MIC90 [11]: 1 µg/mL (≈ 2.1 µM) | Activity (Escherichia coli [12]): 100% | Activity (Klebsiella pneumoniae [13]): 94% | Activity (Enterobacter cloacae [14]): 98.2% | Activity (Klebsiella aerogenes [15]): 98.1% | Activity (Citrobacter koseri [16]): 100% | Activity (Proteus mirabilis [17]): 98.4% | Activity (Serratia marcescens): 96.3% | Activity (Providencia rettgeri [18]): 92.3% | Activity [19]: 87.8% | Activity (Pseudomonas aeruginosa [20]): 63.9% | Activity (Haemophilus influenzae): inactive | Activity (Staphylococcus aureus [21]): 88.3% | Activity [22]: 100% | MIC50 (Escherichia coli [23]): 8 µg/mL (≈ 16.8 µM) | MIC90 (Escherichia coli [23]): 64 µg/mL (≈ 135 µM) | MIC50 (Klebsiella pneumoniae [24]): 32 µg/mL (≈ 67.3 µM) | MIC90 (Klebsiella pneumoniae [24]): > 128 µg/mL | MIC50 (Enterobacter cloacae [25]): 128 µg/mL (≈ 269 µM) | MIC90 (Enterobacter cloacae [25]): > 128 µg/mL | MIC50 (Klebsiella aerogenes [26]): 32 µg/mL (≈ 67.3 µM) | MIC90 (Klebsiella aerogenes [26]): 128 µg/mL (≈ 269 µM) | MIC50 (Citrobacter koseri [27]): > 128 µg/mL | MIC90 (Citrobacter koseri [27]): > 128 µg/mL | MIC50 (Morganella morganii [28]): 8 µg/mL (≈ 16.8 µM) | MIC90 (Morganella morganii [28]): 16 µg/mL (≈ 33.6 µM) | MIC50 (Providencia rettgeri [29]): 16 µg/mL (≈ 33.6 µM) | MIC90 (Providencia rettgeri [29]): 128 µg/mL (≈ 269 µM) | MIC50 [30]: 128 µg/mL (≈ 269 µM) | MIC90 [30]: > 128 µg/mL | MIC50 (Pseudomonas aeruginosa [31]): > 128 µg/mL | MIC90 (Pseudomonas aeruginosa [31]): > 128 µg/mL | MIC50 (Pseudomonas sp. [32]): > 128 µg/mL | MIC90 (Pseudomonas sp. [32]): > 128 µg/mL | MIC50 (Staphylococcus aureus [33]): 16 µg/mL (≈ 33.6 µM) | MIC90 (Staphylococcus aureus [33]): 128 µg/mL (≈ 269 µM) | MIC50 (Enterococcus faecalis [34]): 4 µg/mL (≈ 8.41 µM) | MIC90 (Enterococcus faecalis [34]): > 128 µg/mL | Activity (Klebsiella pneumoniae [35]): 17.9% | Activity (Citrobacter koseri [36]): 7.1% | Activity (Morganella morganii [37]): 41.7% | Activity (Providencia rettgeri [38]): 40% | Activity (Pseudomonas aeruginosa [39]): 2.9% | Activity (Staphylococcus aureus [40]): 47.2% | Activity [41]: 84.6% | Activity (Enterococcus faecalis [42]): inactive | Km [43]: 304 µM
